# Results published in ChEMBL document CHEMBL4011590, “Structure-activity relationship studies on 3,5-dinitrophenyl tetrazoles as antitubercular agents” (Eur J Med Chem, 2017).
# Tests used:
# [1] = tested on: Trichosporon asahii; experiment: Antifungal activity against Trichosporon asahii 1188 after 24 hrs by broth microdilution method; type: functional; conditions: Trichosporon asahii, 1188, 24 h
# [2] = tested on: Enterococcus sp.; experiment: Antibacterial activity against Enterococcus sp. HK14365/08 after 24 hrs by broth microdilution method; type: functional; conditions: HK14365/08, 24 h
# [3] = tested on: Candida tropicalis; experiment: Antifungal activity against Candida tropicalis 156 after 48 hrs by broth microdilution method; type: functional; conditions: Candida tropicalis, 156, 48 h
# [4] = tested on: Enterococcus sp.; experiment: Antibacterial activity against Enterococcus sp. HK14365/08 after 48 hrs by broth microdilution method; type: functional; conditions: HK14365/08, 48 h
# [5] = tested on: Mycobacterium avium; experiment: Antimycobacterial activity against Mycobacterium avium CNCTC My 330/80 after 14 days by micromethod; type: functional; conditions: CNCTC My 330/80, 336 h
# [6] = tested on: Klebsiella pneumoniae; experiment: Antibacterial activity against Klebsiella pneumoniae HK11750/08 after 48 hrs by broth microdilution method; type: functional; conditions: HK11750/08, 48 h
# [7] = tested on: Mycobacterium tuberculosis; experiment: Antimycobacterial activity against Mycobacterium tuberculosis H37Rv CNCTC My 331/88 after 21 days by micromethod; type: functional; conditions: H37Rv CNCTC My 331/88, 504 h
# [8] = tested on: Aspergillus fumigatus; experiment: Antifungal activity against Aspergillus fumigatus 231 after 48 hrs by broth microdilution method; type: functional; conditions: Aspergillus fumigatus, 231, 48 h
# [9] = tested on: Escherichia coli; experiment: Antibacterial activity against Escherichia coli ATCC 8739 after 24 hrs by broth microdilution method; type: functional; conditions: ATCC 8739, 24 h
# [10] = tested on: Candida albicans; experiment: Antifungal activity against Candida albicans ATCC 44859 after 24 hrs by broth microdilution method; type: functional; conditions: ATCC 44859, 24 h
# [11] = tested on: Lichtheimia corymbifera; experiment: Antifungal activity against Absidia corymbifera 272 after 24 hrs by broth microdilution method; type: functional; conditions: Lichtheimia corymbifera, 272, 24 h
# [12] = tested on: Staphylococcus aureus; experiment: Antibacterial activity against methicillin-resistant Staphylococcus aureus HK5996/08 after 48 hrs by broth microdilution method; type: functional; conditions: HK5996/08, 48 h
# [13] = tested on: Candida albicans; experiment: Antifungal activity against Candida albicans ATCC 44859 after 48 hrs by broth microdilution method; type: functional; conditions: ATCC 44859, 48 h
# [14] = tested on: Klebsiella pneumoniae; experiment: Antibacterial activity against Klebsiella pneumoniae HK11750/08 after 24 hrs by broth microdilution method; type: functional; conditions: HK11750/08, 24 h
# [15] = tested on: Staphylococcus aureus; experiment: Antibacterial activity against methicillin-resistant Staphylococcus aureus HK5996/08 after 24 hrs by broth microdilution method; type: functional; conditions: HK5996/08, 24 h
# [16] = tested on: Klebsiella pneumoniae; experiment: Antibacterial activity against extended spectrum beta-lactamase producing Klebsiella pneumoniae HK14368/08 after 24 hrs by broth microdilution method; type: functional; conditions: HK14368/08, 24 h
# [17] = tested on: Mycobacterium kansasii; experiment: Antimycobacterial activity against Mycobacterium kansasii isolate 6509/96 after 7 days by micromethod; type: functional; conditions: isolate 6509/96, 168 h
# [18] = tested on: Mycobacterium tuberculosis; experiment: Antimycobacterial activity against Mycobacterium tuberculosis H37Rv CNCTC My 331/88 after 14 days by micromethod; type: functional; conditions: H37Rv CNCTC My 331/88, 336 h
# [19] = tested on: Trichophyton mentagrophytes; experiment: Antifungal activity against Trichophyton mentagrophytes 445 after 72 hrs by broth microdilution method; type: functional; conditions: Trichophyton mentagrophytes, 445, 72 h
# [20] = tested on: Pseudomonas aeruginosa; experiment: Antibacterial activity against Pseudomonas aeruginosa ATCC 9027 after 24 hrs by broth microdilution method; type: functional; conditions: ATCC 9027, 24 h
# [21] = tested on: Mycobacterium kansasii; experiment: Antimycobacterial activity against Mycobacterium kansasii CNCTC My 235/80 after 21 days by micromethod; type: functional; conditions: CNCTC My 235/80, 504 h
# [22] = tested on: Candida tropicalis; experiment: Antifungal activity against Candida tropicalis 156 after 24 hrs by broth microdilution method; type: functional; conditions: Candida tropicalis, 156, 24 h
# [23] = tested on: Mycobacterium kansasii; experiment: Antimycobacterial activity against Mycobacterium kansasii CNCTC My 235/80 after 14 days by micromethod; type: functional; conditions: CNCTC My 235/80, 336 h
# [24] = tested on: Nakaseomyces glabratus; experiment: Antifungal activity against Candida glabrata 20/I after 24 hrs by broth microdilution method; type: functional
# [25] = tested on: Escherichia coli; experiment: Antibacterial activity against Escherichia coli ATCC 8739 after 48 hrs by broth microdilution method; type: functional; conditions: ATCC 8739, 48 h
# [26] = tested on: Trichophyton mentagrophytes; experiment: Antifungal activity against Trichophyton mentagrophytes 445 after 120 hrs by broth microdilution method; type: functional; conditions: Trichophyton mentagrophytes, 445, 120 h
# [27] = tested on: Pseudomonas aeruginosa; experiment: Antibacterial activity against Pseudomonas aeruginosa ATCC 9027 after 48 hrs by broth microdilution method; type: functional; conditions: ATCC 9027, 48 h
# [28] = tested on: Staphylococcus aureus; experiment: Antibacterial activity against Staphylococcus aureus ATCC 6538 after 48 hrs by broth microdilution method; type: functional; conditions: ATCC 6538, 48 h
# [29] = tested on: Mycobacterium kansasii; experiment: Antimycobacterial activity against Mycobacterium kansasii isolate 6509/96 after 21 days by micromethod; type: functional; conditions: isolate 6509/96, 504 h
# [30] = tested on: Lichtheimia corymbifera; experiment: Antifungal activity against Absidia corymbifera 272 after 48 hrs by broth microdilution method; type: functional; conditions: Lichtheimia corymbifera, 272, 48 h
# [31] = tested on: Trichosporon asahii; experiment: Antifungal activity against Trichosporon asahii 1188 after 48 hrs by broth microdilution method; type: functional; conditions: Trichosporon asahii, 1188, 48 h
# [32] = tested on: Pichia kudriavzevii; experiment: Antifungal activity against Candida krusei E28 after 48 hrs by broth microdilution method; type: functional; conditions: E28, 48 h
# [33] = tested on: Mycobacterium avium; experiment: Antimycobacterial activity against Mycobacterium avium CNCTC My 330/80 after 21 days by micromethod; type: functional; conditions: CNCTC My 330/80, 504 h
# [34] = tested on: Mycobacterium kansasii; experiment: Antimycobacterial activity against Mycobacterium kansasii isolate 6509/96 after 14 days by micromethod; type: functional; conditions: isolate 6509/96, 336 h
# [35] = tested on: Aspergillus fumigatus; experiment: Antifungal activity against Aspergillus fumigatus 231 after 24 hrs by broth microdilution method; type: functional; conditions: Aspergillus fumigatus, 231, 24 h
# [36] = tested on: CHO-K1; experiment: Cytotoxicity against CHOK1 cells after 24 hrs by MTT assay; type: cell-based; conditions: Cricetulus griseus, CHO-K1, 24 h
# [37] = tested on: Klebsiella pneumoniae; experiment: Antibacterial activity against extended spectrum beta-lactamase producing Klebsiella pneumoniae HK14368/08 after 48 hrs by broth microdilution method; type: functional; conditions: HK14368/08, 48 h
# [38] = tested on: Nakaseomyces glabratus; experiment: Antifungal activity against Candida glabrata 20/I after 48 hrs by broth microdilution method; type: functional
# [39] = tested on: Mycobacterium kansasii; experiment: Antimycobacterial activity against Mycobacterium kansasii CNCTC My 235/80 after 7 days by micromethod; type: functional; conditions: CNCTC My 235/80, 168 h
# [40] = tested on: Staphylococcus epidermidis; experiment: Antibacterial activity against Staphylococcus epidermidis HK6966/08 after 24 hrs by broth microdilution method; type: functional; conditions: HK6966/08, 24 h
# [41] = tested on: Staphylococcus epidermidis; experiment: Antibacterial activity against Staphylococcus epidermidis HK6966/08 after 48 hrs by broth microdilution method; type: functional; conditions: HK6966/08, 48 h
# [42] = tested on: Staphylococcus aureus; experiment: Antibacterial activity against Staphylococcus aureus ATCC 6538 after 24 hrs by broth microdilution method; type: functional; conditions: ATCC 6538, 24 h
# [43] = tested on: Pichia kudriavzevii; experiment: Antifungal activity against Candida krusei E28 after 24 hrs by broth microdilution method; type: functional; conditions: E28, 24 h
smiles,measurement,setting,value
Cc1ccc(Cn2nnc(-c3cc([N+](=O)[O-])cc([N+](=O)[O-])c3)n2)cc1,MIC,[1],> 500 µM
same,MIC,[2],> 500 µM
same,MIC,[3],> 500 µM
same,MIC,[4],> 500 µM
same,MIC99,[5],8 µM
same,MIC,[6],> 500 µM
same,MIC99,[7],0.125 µM
same,MIC,[8],> 500 µM
same,MIC,[9],> 500 µM
same,MIC,[10],> 500 µM
same,MIC,[11],> 500 µM
same,MIC,[12],> 500 µM
same,MIC,[13],> 500 µM
same,MIC,[14],> 500 µM
same,MIC,[15],> 500 µM
same,MIC,[16],> 500 µM
same,MIC99,[17],0.25 µM
same,MIC99,[18],0.125 µM
same,MIC,[19],> 500 µM
same,MIC,[20],> 500 µM
same,MIC99,[21],1 µM
same,MIC,[22],> 500 µM
same,MIC99,[23],1 µM
same,MIC,[24],> 500 µM
same,MIC,[25],> 500 µM
same,MIC,[26],> 500 µM
same,MIC,[27],> 500 µM
same,MIC,[28],31.2 µM
same,MIC99,[29],0.5 µM
same,MIC,[30],> 500 µM
same,MIC,[31],> 500 µM
same,MIC,[32],> 500 µM
same,MIC99,[33],16 µM
same,MIC99,[34],0.5 µM
same,MIC,[35],> 500 µM
same,IC50,[36],200 µM
same,MIC,[37],> 500 µM
same,MIC,[38],> 500 µM
same,MIC99,[39],0.5 µM
same,MIC,[40],62.5 µM
same,MIC,[41],62.5 µM
same,MIC,[42],31.2 µM
same,MIC,[43],> 500 µM
